Measured values reported in ChEMBL document CHEMBL5505968, “Hybrids of selective COX-2 inhibitors and active derivatives of edaravone as COX-2 selective NSAIDs with free radical scavenging activity: Design, synthesis and biological activities” (Eur J Med Chem, 2024).

Key:
[1] = Antioxidant activity assessed as DPPH radical scavenging activity at 40 uM incubated for 30 mins by thermo-microplate photometric analysis relative to control; format: functional
[2] = Antioxidant activity assessed as DPPH radical scavenging activity incubated for 30 mins by thermo-microplate photometric analysis; format: functional
[3] = target: Prostaglandin G/H synthase 2 (Homo sapiens) (UniProt P35354); experiment: Inhibition of COX-2 (unknown origin) using arachidonic acid as substrate at 1 uM preincubated for 10 mins followed by substrate addition and measured after 5 mins by fluorescence based analysis relative to control; details: time 15.0 min
Prostaglandin G/H synthase 2 (Homo sapiens), sequence (P35354 whole entry, looked up): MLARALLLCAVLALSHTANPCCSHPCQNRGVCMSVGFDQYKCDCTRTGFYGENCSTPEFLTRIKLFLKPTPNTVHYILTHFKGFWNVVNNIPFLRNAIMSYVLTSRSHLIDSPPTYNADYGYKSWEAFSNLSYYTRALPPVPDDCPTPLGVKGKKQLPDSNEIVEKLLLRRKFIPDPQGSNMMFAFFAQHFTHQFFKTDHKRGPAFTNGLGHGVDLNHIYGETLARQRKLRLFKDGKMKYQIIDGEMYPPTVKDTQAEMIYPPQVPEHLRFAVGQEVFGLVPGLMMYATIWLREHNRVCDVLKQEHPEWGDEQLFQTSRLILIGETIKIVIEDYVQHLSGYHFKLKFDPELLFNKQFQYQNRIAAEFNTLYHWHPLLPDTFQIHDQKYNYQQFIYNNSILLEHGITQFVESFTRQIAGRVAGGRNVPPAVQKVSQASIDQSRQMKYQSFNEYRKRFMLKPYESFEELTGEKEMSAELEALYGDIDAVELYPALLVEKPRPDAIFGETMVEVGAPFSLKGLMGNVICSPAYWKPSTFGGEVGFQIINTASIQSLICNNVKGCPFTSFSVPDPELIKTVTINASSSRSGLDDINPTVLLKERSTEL

[4] = target: Prostaglandin G/H synthase 2 (Homo sapiens) (UniProt P35354); experiment: Inhibition of COX-2 (unknown origin) using arachidonic acid as substrate at 10 uM preincubated for 10 mins followed by substrate addition and measured after 5 mins by fluorescence based analysis relative to control; details: time 15.0 min
[5] = Tmax in ICR mouse at 1 mg/kg,iv administration measured for 0.25 to 8 hrs by LC-MS/MS analysis; format: ADME, organism-based; details: in vivo, time 0.25-8 hrs
[6] = Tmax in ICR mouse at 10 mg/kg,po administration measured for 0.25 to 8 hrs by LC-MS/MS analysis; format: ADME, organism-based; details: in vivo, time 0.25-8 hrs
[7] = Cmax in ICR mouse at 1 mg/kg,iv administration measured for 0.25 to 8 hrs by LC-MS/MS analysis; format: ADME, organism-based; details: in vivo, time 0.25-8 hrs
[8] = Cmax in ICR mouse at 10 mg/kg,po administration measured for 0.25 to 8 hrs by LC-MS/MS analysis; format: ADME, organism-based; details: in vivo, time 0.25-8 hrs
[9] = AUC (0 to t) in ICR mouse at 1 mg/kg,iv administration measured for 0.25 to 8 hrs by LC-MS/MS analysis; format: ADME, organism-based; details: in vivo, time 0.25-8 hrs
[10] = AUC (0 to t) in ICR mouse at 10 mg/kg,po administration measured for 0.25 to 8 hrs by LC-MS/MS analysis; format: ADME, organism-based; details: in vivo, time 0.25-8 hrs
[11] = AUC (0 to infinity) in ICR mouse at 1 mg/kg,iv administration measured for 0.25 to 8 hrs by LC-MS/MS analysis; format: ADME, organism-based; details: in vivo, time 0.25-8 hrs
[12] = AUC (0 to infinity) in ICR mouse at 10 mg/kg,po administration measured for 0.25 to 8 hrs by LC-MS/MS analysis; format: ADME, organism-based; details: in vivo, time 0.25-8 hrs
[13] = MRT (0 to infinity) in ICR mouse at 1 mg/kg,iv administration measured for 0.25 to 8 hrs by LC-MS/MS analysis; format: ADME, organism-based; details: in vivo, time 0.25-8 hrs
[14] = MRT (0 to infinity) in ICR mouse at 10 mg/kg,po administration measured for 0.25 to 8 hrs by LC-MS/MS analysis; format: ADME, organism-based; details: in vivo, time 0.25-8 hrs
[15] = Half life in ICR mouse at 1 mg/kg,iv administration measured for 0.25 to 8 hrs by LC-MS/MS analysis; format: ADME, organism-based; details: in vivo, time 0.25-8 hrs
[16] = Half life in ICR mouse at 10 mg/kg,po administration measured for 0.25 to 8 hrs by LC-MS/MS analysis; format: ADME, organism-based; details: in vivo, time 0.25-8 hrs
[17] = Apparent volume of distribution in ICR mouse at 1 mg/kg,iv administration measured for 0.25 to 8 hrs by LC-MS/MS analysis; format: ADME, organism-based; details: in vivo, time 0.25-8 hrs, read-out: Vz
[18] = Apparent volume of distribution in ICR mouse at 10 mg/kg,po administration measured for 0.25 to 8 hrs by LC-MS/MS analysis; format: ADME, organism-based; details: in vivo, time 0.25-8 hrs
[19] = Clearance in ICR mouse at 1 mg/kg,iv administration measured for 0.25 to 8 hrs by LC-MS/MS analysis; format: ADME, organism-based; details: in vivo, time 0.25-8 hrs
[20] = Clearance in ICR mouse at 10 mg/kg,po administration measured for 0.25 to 8 hrs by LC-MS/MS analysis; format: ADME, organism-based; details: in vivo, time 0.25-8 hrs
[21] = Bioavailability in ICR mouse at 1 mg/kg,iv administration measured for 0.25 to 8 hrs by LC-MS/MS analysis; format: ADME, organism-based; details: in vivo, time 0.25-8 hrs
[22] = system: Liver; experiment: Antioxidant activity against FeCl2 induced oxidative stress in ICR mouse liver assessed as inhibition of malondialdehyde level at 250 uM incubated for 60 mins by thermo-microplate photometric analysis relative to control; format: functional; details: 1 h
[23] = system: Liver; experiment: Antioxidant activity against FeCl2 induced oxidative stress in ICR mouse liver assessed as inhibition of malondialdehyde level at 500 uM incubated for 60 mins by thermo-microplate photometric analysis relative to control; format: functional; details: 1 h
[24] = system: Liver; experiment: Antioxidant activity against FeCl2 induced oxidative stress in ICR mouse liver assessed as inhibition of malondialdehyde level at 1000 uM incubated for 60 mins by thermo-microplate photometric analysis relative to control; format: functional; details: 1 h
[25] = system: Mus musculus; experiment: Analgesic activity against acetic acid-induced ICR mouse assessed as number of writhing at 20 mg/kg,ip pre-administrated with compound for 15 mins followed by acetic acid addition and measured after 15 mins; format: functional; details: time 30 min, 0.5 h
[26] = system: Mus musculus; experiment: Analgesic activity against acetic acid-induced ICR mouse assessed as number of writhing at 50 mg/kg,ip pre-administrated with compound for 15 mins followed by acetic acid addition and measured after 15 mins; format: functional; details: time 30 min, 0.5 h
[27] = system: Mus musculus; experiment: Analgesic activity against acetic acid-induced ICR mouse assessed as inhibition of writhing at 20 mg/kg,ip pre-administrated with compound for 15 mins followed by acetic acid addition and measured after 15 mins; format: functional; details: 0.5 h, time 30 min
[28] = system: Mus musculus; experiment: Analgesic activity against acetic acid-induced ICR mouse assessed as inhibition of writhing at 50 mg/kg,ip pre-administrated with compound for 15 mins followed by acetic acid addition and measured after 15 mins; format: functional; details: 0.5 h, time 30 min

For `CC(C)(C)c1nn(-c2ccccc2)c(O)c1Cc1ccc(C(=O)NO)cc1`, the inhibition [1] was 72.9%, the IC50 [2] was 19.6 µM and the inhibition [3] was 75%. The inhibition [4] was 89%.
For `Cc1nn(-c2ccccc2)c(O)c1Cc1ccc(C(=O)O)cc1`, the inhibition [1] was 37.7%, the inhibition [3] was 85.5% and the inhibition [4] was 95%.
Compound `Cc1nn(-c2ccc(Cl)c(Cl)c2)c(O)c1Cc1ccc(C(=O)O)cc1` has an inhibition [1] of 38.6%, an inhibition [3] of 50.5% and an inhibition [4] of 81%.
`COc1cccc(-n2nc(C)c(Cc3ccc(C(=O)NO)cc3)c2O)c1` gave an inhibition [1] of 43.3%, an inhibition [3] of 78% and an inhibition [4] of 89%.
Compound `CCc1nn(-c2ccccc2)c(O)c1Cc1ccc(C(=O)NO)cc1` has an inhibition [1] of 67.7%, an IC50 [2] of 22.1 µM and an inhibition [3] of 70.5%. For the same compound, the inhibition [4] was 82.5%.
`Cc1nn(-c2ccc(Cl)cc2)c(O)c1Cc1ccc(C(=O)NO)cc1` gave an inhibition [1] of 68%, an inhibition [3] of 64.5% and an inhibition [4] of 78.5%.
`Cc1nn(-c2cccc(Cl)c2)c(O)c1Cc1ccc(C(=O)O)cc1` showed an inhibition [1] of 35.8%, an inhibition [3] of 45.5% and an inhibition [4] of 75%.
For `Cc1[nH]n(-c2ccccc2)c(=O)c1Cc1ccc(C(=O)NO)cc1`, the inhibition [1] was 71.6%, the IC50 [2] was 19.9 µM and the Tmax [5] was 4.8 min. For the same compound, the Tmax [6] was 1 h, the Cmax [7] was 12200 ng/mL and the Cmax [8] was 4510 ng/mL. The AUC(0-t) [9] was 7680 ng·h/mL, the AUC(0-t) [10] was 20300 ng·h/mL and the AUC(0-inf) [11] was 7870 ng·h/mL. The AUC(0-inf) [12] was 28400 ng·h/mL, the MRT inf [13] was 1.08 h and the MRT inf [14] was 6.32 h. It also gave a half-life [15] of 2.74 h, a half-life [16] of 4.16 h and a Vd [17] of 0.508 L/kg. The Vz [18] was 2.13507 L/kg, the clearance [19] was 2.12 mL/min/kg and the CL/F [20] was 5.92 mL/min/kg. For the same compound, the bioavailability [21] was 36%, the inhibition at 250 µM [22] was 51.9% and the inhibition at 500 µM [23] was 62.3%. It also gave an inhibition at 1000 µM [24] of 77.3%, an Activity [25] of 11.1 and an Activity [26] of 9.8. For the same compound, the inhibition in vivo at 20 mg/kg [27] was 70.2%, the inhibition in vivo at 50 mg/kg [28] was 73.7% and the inhibition [3] was 87%. The inhibition [4] was 98%.
Compound `O=C(NO)c1ccc(Cc2c(C3CC3)[nH]n(-c3ccccc3)c2=O)cc1` has an inhibition [1] of 64.7%, an inhibition [3] of 55% and an inhibition [4] of 72.5%.
Work on `Cc1nn(-c2ccc(Cl)cc2)c(O)c1Cc1ccc(C(=O)O)cc1` yielded an inhibition [1] of 36.1%, an inhibition [3] of 46% and an inhibition [4] of 78.5%.
With `Cc1nn(-c2ccccc2)c(O)c1Cc1cccc(C(=O)O)c1` the inhibition [1] was 17.4%, the inhibition [3] was 63.5% and the inhibition [4] was 94.5%.
In the case of `Cc1nn(-c2ccccc2)c(O)c1Cc1cccc(S(C)(=O)=O)c1`, the inhibition [1] is reported as 22.8%, the inhibition [3] is reported as 77.5% and the inhibition [4] is reported as 84.5%.
`CCc1nn(-c2ccccc2)c(O)c1Cc1ccc(C(=O)O)cc1` showed an inhibition [1] of 42.7%, an inhibition [3] of 63.5% and an inhibition [4] of 83.5%.
Work on `Cc1nn(-c2ccccc2)c(O)c1Cc1ccc(S(C)(=O)=O)cc1` yielded an inhibition [1] of 37.1%, an inhibition [3] of 77.5% and an inhibition [4] of 90%.
For `CC1=NN(c2ccccc2)C(=O)C1` [EDARAVONE], the inhibition [1] was 64.3%, the IC50 [2] was 32.8 µM and the inhibition at 250 µM [22] was 37.7%. For the same compound, the inhibition at 500 µM [23] was 46.9% and the inhibition at 1000 µM [24] was 62.2%.
Compound `Cc1[nH]n(-c2ccccc2)c(=O)c1Cc1cccc(C(=O)NO)c1` has an inhibition [1] of 11%, an inhibition [3] of 66.5% and an inhibition [4] of 86%.
Work on `CC(C)(C)c1nn(-c2ccccc2)c(O)c1Cc1ccc(C(=O)O)cc1` yielded an inhibition [1] of 49.9%, an inhibition [3] of 54.5% and an inhibition [4] of 73%.
Work on `Cc1nn(-c2cccc(Cl)c2)c(O)c1Cc1ccc(C(=O)NO)cc1` yielded an inhibition [1] of 69.2%, an IC50 [2] of 23.8 µM and an inhibition [3] of 75%. For the same compound, the inhibition [4] was 90.5%.
`O=C(O)c1ccc(Cc2c(C3CC3)nn(-c3ccccc3)c2O)cc1` showed an inhibition [1] of 37.3%, an inhibition [3] of 57.5% and an inhibition [4] of 82%.
`Cc1nn(-c2ccc(Cl)c(Cl)c2)c(O)c1Cc1ccc(C(=O)NO)cc1` showed an inhibition [1] of 58.1%, an inhibition [3] of 58.5% and an inhibition [4] of 80.5%.
Work on `Cc1nn(-c2ccccc2)c(O)c1Cc1ccc(CC(=O)O)cc1` yielded an inhibition [1] of 38.5%, an inhibition [3] of 78% and an inhibition [4] of 86.5%.
Work on `COc1cccc(-n2nc(C)c(Cc3ccc(C(=O)O)cc3)c2O)c1` yielded an inhibition [1] of 33.6%, an inhibition [3] of 58.5% and an inhibition [4] of 79%.
`Cc1ccc(-c2cc(C(F)(F)F)nn2-c2ccc(S(N)(=O)=O)cc2)cc1` [CELECOXIB] gave an Activity [25] of 7.1 and an inhibition in vivo at 20 mg/kg [27] of 80.9%.
